“And” between values parts separate entries of the source, which are not always exact repeats. Equal entries are not always repeated. Toxic doses and inconclusive results are not listed. Cut-off read from the data, not from the text of the source: active = T/C of 150% or more; inactive = T/C below 125%.
System: L1210 leukemia ip in BDF1 mice, survival T/C
Assay: NCI In Vivo Anticancer Drug Screen. Data for tumor model L1210 Leukemia (intraperitoneal) in B6D2F1 (BDF1) mice
Details: higher = longer survival
Procedure, shortened: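 In this screen, tumor-bearing mice given compound are compared to those given vehicle, and their survival values are reported as a treated-to-control quotient.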

[1] = endpoint: mean survival time, dose: 75.0 mg/kg/injection, schedule: Q01DX001 (ip), vehicle: saline
[2] = endpoint: mean survival time, dose: 100.0 mg/kg/injection, schedule: Q01DX009 (ip), vehicle: saline with Tween-80
[3] = endpoint: mean survival time, dose: 100.0 mg/kg/injection, schedule: Q04DX003 (ip), vehicle: saline with Tween-80
[4] = endpoint: mean survival time, dose: 200.0 mg/kg/injection, schedule: Q01DX009 (ip), vehicle: saline with Tween-80
[5] = endpoint: mean survival time, dose: 200.0 mg/kg/injection, schedule: Q04DX003 (ip), vehicle: saline with Tween-80
[6] = endpoint: mean survival time, dose: 400.0 mg/kg/injection, schedule: Q01DX009 (ip), vehicle: saline with Tween-80
[7] = endpoint: mean survival time, dose: 400.0 mg/kg/injection, schedule: Q04DX003 (ip), vehicle: saline with Tween-80
[8] = endpoint: mean survival time, dose: 100.0 mg/kg/injection, schedule: Q01DX001 (ip), vehicle: saline
[9] = endpoint: mean survival time, dose: 200.0 mg/kg/injection, schedule: Q01DX001 (ip), vehicle: saline
[10] = endpoint: mean survival time, dose: 100.0 mg/kg/injection, schedule: Q01DX001 (ip), vehicle: Klucel (hydroxypropylcellulose) (HPC)
[11] = endpoint: mean survival time, dose: 200.0 mg/kg/injection, schedule: Q01DX001 (ip), vehicle: Klucel (hydroxypropylcellulose) (HPC)
[12] = endpoint: mean survival time, dose: 400.0 mg/kg/injection, schedule: Q01DX001 (ip), vehicle: Klucel (hydroxypropylcellulose) (HPC)
[13] = endpoint: mean survival time, dose: 100.0 mg/kg/injection, schedule: Q04DX003 (ip), vehicle: Klucel (hydroxypropylcellulose) (HPC)
[14] = endpoint: mean survival time, dose: 200.0 mg/kg/injection, schedule: Q04DX003 (ip), vehicle: Klucel (hydroxypropylcellulose) (HPC)
[15] = endpoint: mean survival time, dose: 400.0 mg/kg/injection, schedule: Q04DX002 (ip), vehicle: saline with Tween-80
[16] = endpoint: mean survival time, dose: 400.0 mg/kg/injection, schedule: Q04DX003 (ip), vehicle: Klucel (hydroxypropylcellulose) (HPC)
[17] = endpoint: mean survival time, dose: 100.0 mg/kg/injection, schedule: Q01DX009 (ip), vehicle: Klucel (hydroxypropylcellulose) (HPC)
[18] = endpoint: mean survival time, dose: 200.0 mg/kg/injection, schedule: Q01DX009 (ip), vehicle: Klucel (hydroxypropylcellulose) (HPC)
[19] = endpoint: mean survival time, dose: 400.0 mg/kg/injection, schedule: Q01DX009 (ip), vehicle: Klucel (hydroxypropylcellulose) (HPC)
[20] = endpoint: mean survival time, dose: 100.0 mg/kg/injection, schedule: Q04DX003 (ip), vehicle: saline
[21] = endpoint: mean survival time, dose: 200.0 mg/kg/injection, schedule: Q04DX003 (ip), vehicle: saline

Measured: T/C

CC[N+](C)(C)C(C)(C)C
inactive: endpoint: mean survival time, dose: 18.75 mg/kg/injection, schedule: Q01DX001 (ip), vehicle: saline 112 % of control | endpoint: mean survival time, dose: 37.5 mg/kg/injection, schedule: Q01DX001 (ip), vehicle: saline 105 % of control | [1] 105 % of control

CC1(C)c2ccccc2Nc2ccccc21
inactive: [2] 86 % of control | [3] 97 % of control | [4] 89 % of control | [5] 101 % of control | [6] 89 % of control | [7] 98 % of control

CCOC(=O)/C=C1/Nc2cc(C)c(C)cc2NC1=O
inactive: [3] 91 % of control | [5] 89 % of control | [7] 94 % of control

[O-]/[N+](=N\Nc1ccccc1)c1ccccc1
inactive: endpoint: mean survival time, dose: 7.5 mg/kg/injection, schedule: Q01DX009 (ip), vehicle: saline with Tween-80 107 % of control | endpoint: mean survival time, dose: 15.0 mg/kg/injection, schedule: Q01DX009 (ip), vehicle: saline with Tween-80 104 % of control | endpoint: mean survival time, dose: 30.0 mg/kg/injection, schedule: Q01DX009 (ip), vehicle: saline with Tween-80 89 % of control | endpoint: mean survival time, dose: 60.0 mg/kg/injection, schedule: Q01DX009 (ip), vehicle: saline with Tween-80 96 % of control

CC(C)(O)c1cccc(F)c1
inactive: endpoint: mean survival time, dose: 50.0 mg/kg/injection, schedule: Q01DX009 (ip), vehicle: saline with Tween-80 90 % of control | [2] 93 % of control | [4] 121 % of control

ClC(Cc1ccccc1)c1ccccc1 (configuration not stated)
inactive: endpoint: mean survival time, dose: 50.0 mg/kg/injection, schedule: Q01DX001 (ip), vehicle: saline 97 % of control | [8] 97 % of control | [9] 97 % of control | endpoint: mean survival time, dose: 400.0 mg/kg/injection, schedule: Q01DX001 (ip), vehicle: saline 97 % of control

C=C(C)C1(C)C(=O)NC(=S)NC1=O
inactive: [1] 108 % of control | endpoint: mean survival time, dose: 150.0 mg/kg/injection, schedule: Q01DX001 (ip), vehicle: saline 100 % of control | endpoint: mean survival time, dose: 300.0 mg/kg/injection, schedule: Q01DX001 (ip), vehicle: saline 107 % of control

CCOC(=O)c1nc2c(C)nc(N(C)C)nc2n(C)c1=O
inactive: [10] 100 % of control | [11] 97 % of control | [12] 94 % of control

CC(=O)Nc1c(Cl)c(Cl)c2[nH]c(=O)c3cc(Cl)ccc3c2c1Cl
inactive: endpoint: mean survival time, dose: 75.0 mg/kg/injection, schedule: Q01DX001 (ip), vehicle: carboxymethylcellulose (CMC) 87 % of control | endpoint: mean survival time, dose: 150.0 mg/kg/injection, schedule: Q01DX001 (ip), vehicle: carboxymethylcellulose (CMC) 95 % of control | endpoint: mean survival time, dose: 300.0 mg/kg/injection, schedule: Q01DX001 (ip), vehicle: carboxymethylcellulose (CMC) 88 % of control

NCCCNCCCCNCCCN
inactive: endpoint: mean survival time, dose: 2.0 mg/kg/injection, schedule: Q01DX010 (ip), vehicle: other 103 % of control | endpoint: mean survival time, dose: 4.0 mg/kg/injection, schedule: Q01DX010 (ip), vehicle: other 103 % of control | endpoint: mean survival time, dose: 8.0 mg/kg/injection, schedule: Q01DX010 (ip), vehicle: other 97 % of control | endpoint: mean survival time, dose: 16.0 mg/kg/injection, schedule: Q01DX010 (ip), vehicle: other 92 % of control | endpoint: mean survival time, dose: 32.0 mg/kg/injection, schedule: Q01DX010 (ip), vehicle: other 97 % of control | endpoint: median survival time, dose: 6.3 mg/kg/injection, schedule: Q01DX009 (ip), vehicle: water 87 % of control and 90 % of control | endpoint: median survival time, dose: 12.5 mg/kg/injection, schedule: Q01DX009 (ip), vehicle: water 96 % of control and 100 % of control | endpoint: median survival time, dose: 25.0 mg/kg/injection, schedule: Q01DX009 (ip), vehicle: water 94 % of control and 95 % of control | endpoint: median survival time, dose: 50.0 mg/kg/injection, schedule: Q01DX009 (ip), vehicle: water 96 % of control and 100 % of control

NC(N)=NC(N)=NCCc1ccccc1
inactive: [8] 94 % of control | [9] 94 % of control

O=[N+]([O-])c1cccc([I+]c2cccc([N+](=O)[O-])c2)c1
inactive: endpoint: mean survival time, dose: 100.0 mg/kg/injection, schedule: Q04DX002 (ip), vehicle: saline with Tween-80 100 % of control | [13] 96 % of control | endpoint: mean survival time, dose: 200.0 mg/kg/injection, schedule: Q04DX002 (ip), vehicle: saline with Tween-80 92 % of control | [14] 104 % of control | [15] 100 % of control | [16] 91 % of control

CC1=CC(C)(C)Nc2ccc(Cc3ccc4c(c3)C(C)=CC(C)(C)N4)cc21
inactive: [2] 86 % of control | [4] 100 % of control | [6] 92 % of control

CCSc1ncnc2c1nnn2C1OC(CO)C(O)C1O (configuration not stated)
inactive: endpoint: mean survival time, dose: 12.5 mg/kg/injection, schedule: Q01DX001 (ip), vehicle: saline with Tween-80 100 % of control | endpoint: mean survival time, dose: 25.0 mg/kg/injection, schedule: Q01DX001 (ip), vehicle: saline with Tween-80 102 % of control | endpoint: mean survival time, dose: 50.0 mg/kg/injection, schedule: Q01DX001 (ip), vehicle: saline with Tween-80 97 % of control | endpoint: mean survival time, dose: 100.0 mg/kg/injection, schedule: Q01DX001 (ip), vehicle: saline with Tween-80 103 % of control | endpoint: mean survival time, dose: 200.0 mg/kg/injection, schedule: Q01DX001 (ip), vehicle: saline with Tween-80 108 % of control

CCCCC(C)(C)COc1nc(OCC(C)(C)CCCC)nc(OCC(C)(C)CCCC)n1
inactive: endpoint: mean survival time, dose: 25.6 mg/kg/injection, schedule: Q04DX002 (ip), vehicle: saline with Tween-80 97 % of control | endpoint: mean survival time, dose: 64.0 mg/kg/injection, schedule: Q04DX002 (ip), vehicle: saline with Tween-80 87 % of control | [3] 89 % of control | [15] 91 % of control | [7] 89 % of control

O=CNc1ccc(Br)cc1
inactive: endpoint: mean survival time, dose: 50.0 mg/kg/injection, schedule: Q04DX003 (ip), vehicle: Klucel (hydroxypropylcellulose) (HPC) 97 % of control | [17] 98 % of control | [13] 97 % of control | [18] 98 % of control | [14] 100 % of control

c1ccc(-c2n[nH]c(-c3ccccn3)n2)nc1
inactive: endpoint: mean survival time, dose: 6.25 mg/kg/injection, schedule: Q01DX009 (ip), vehicle: Klucel (hydroxypropylcellulose) (HPC) 97 % of control | endpoint: mean survival time, dose: 12.5 mg/kg/injection, schedule: Q01DX009 (ip), vehicle: Klucel (hydroxypropylcellulose) (HPC) 112 % of control

CCC(C)c1ccc(O)c(C(C)CC)c1 (configuration not stated)
inactive: [2] 106 % of control | [3] 106 % of control | [4] 101 % of control | [5] 101 % of control | [6] 102 % of control | [7] 94 % of control

COC(=O)Nc1cccc(OC(=O)NC2CCCCC2)c1
inactive: [3] 100 % of control | [5] 100 % of control | [7] 93 % of control

O=c1[nH][nH]c(=O)c2ccccc12
inactive: endpoint: mean survival time, dose: 50.0 mg/kg/injection, schedule: Q01DX001 (ip), vehicle: other 103 % of control | endpoint: mean survival time, dose: 100.0 mg/kg/injection, schedule: Q01DX001 (ip), vehicle: other 103 % of control | [17] 111 % of control and 116 % of control | [13] 108 % of control | endpoint: mean survival time, dose: 200.0 mg/kg/injection, schedule: Q01DX001 (ip), vehicle: other 100 % of control | [18] 106 % of control and 105 % of control | [14] 110 % of control | endpoint: mean survival time, dose: 400.0 mg/kg/injection, schedule: Q01DX001 (ip), vehicle: other 103 % of control | [19] 100 % of control | [16] 104 % of control

CCC(C(=O)NC(C)c1ccc(-c2ccccc2)cc1)c1ccccc1 (configuration not stated)
inactive: [17] 87 % of control | [18] 92 % of control | [19] 86 % of control

O=C(Nc1ccccc1)C1C2CC3OC(=O)C1C3C2 (configuration not stated)
inactive: [20] 104 % of control and 102 % of control | [21] 95 % of control and 92 % of control | endpoint: mean survival time, dose: 400.0 mg/kg/injection, schedule: Q04DX003 (ip), vehicle: saline 98 % of control and 104 % of control

Cc1ccc(O)c(-c2ccccc2)c1
inactive: [10] 100 % of control | [11] 100 % of control | [12] 103 % of control

Nc1ncc(CBr)c(N)n1
inactive: [20] 97 % of control | [21] 96 % of control

CCOC(=O)NN(C)c1c(C)cccc1C
inactive: endpoint: mean survival time, dose: 50.0 mg/kg/injection, schedule: Q01DX001 (ip), vehicle: Klucel (hydroxypropylcellulose) (HPC) 96 % of control | [10] 106 % of control | [11] 104 % of control

— PubChem BioAssay AID248 (DTP/NCI, 2004)
